From patent EP4768484A1, “HETEROCYCLIC FUSED RING COMPOUND, AND COMPOSITION AND USE THEREOF” (Shenzhen TargetRx, Inc., priority 2023, dated 2025) come the findings set out here.

What all share (assay type): cell-based
For one assay, the system named is K562 cells. In words: Cell growth inhibitory activity assay (CellTiter-Glo), K562 cells. The settings on record: Homo sapiens, 72 h, CTG cell viability. In short, it runs like this:
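Growth inhibition of human K562 cells, sourced from Nanjing Kebai (CBP60529), was assessed with Promega's CellTiter-Glo kit, which measures viability through ATP quantification. Log-phase cells went into the inner wells of 96-well plates, with PBS in edge wells, incubated overnight at 37 °C and 5% CO2, then exposed to serially diluted compound for 72 h.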
For orientation: ATP-based viability assays read luminescence as a measure of living cells.

The target in another assay is T1, Ba/F3 BCR-ABL1 T315M (Homo sapiens, UniProt P00519+P11274, T315M).
T1 construct: BCR (N-terminal fusion partner of the oncoprotein); expressed in transfected cells; host or cells: Ba/F3 (lentiviral transduction, monoclonal line)
In words: Cell growth inhibitory activity assay (CellTiter-Glo), Ba/F3 BCR-ABL1 T315M cells. The settings on record: 72 h, CTG cell viability. Here is the method: In this assay, the Celltiter-Glo (CTG) kit provided by Promega was used, and it is a homogeneous cell viability assay method. The cell viability of cultured cells was measured by quantifying ATP. K562 cells were purchased from Nanjing Kebai, product number CBP60529; Ba/F3 parental cells were purchased from RIKEN BRC, product number RCB0805; other cells containing BCR-ABL1 WT, BCR-ABL1 T315I, BCR-ABL1 T315M, BCR-ABL1 Y253H/E255K, BCR-ABL1 E255V/T3151, BCR-ABL1 A424T, BCR-ABL1 A337V, BCR-ABL1 P465S, BCR-ABL1 V468F, and BCR-ABL1 I502L were all monoclonal engineered cell lines obtained by transducting Ba/F3 parental cells with the lentivirus plasmids containing WT or corresponding mutated BCR-ABL1.
The steps of cell viability assay are as follows: • a) Cells in logarithmic growth phase were collected. Cell suspension was prepared and the cells were counted. Concentration of the cells was calculated. • b) The cell suspension was diluted to the required concentration and then added to the middle wells of a 96-well plate, and PBS was added to the edge wells. The wells with no cells and only culture medium were used as blank controls. • c) In addition to the cell plate used for compound analysis, another 96-well plate was prepared as a T0 plate, and 3-6 blank wells and 3-6 cell wells were added. The next day, CTG was used to test the cell viability as the T0 viability value of the cells. • d) The cell plate was incubated at 37 °C in a 5% CO2 incubator overnight. • e) The next day, each concentration of a compound subjected to a gradient dilution was added, and the cell plate was incubated at 37 °C in a 5% CO2 incubator for 72 h. The wells with no compound and only 0.5% DMSO were used as positive controls for cell growth. • f) CTG reagent (CellTiter-Glo kit) was added according to the manufacturer's instructions to test the cell viability value. • g) The plate was read using Biotek cytation3.0 microplate reader and the data were exported. • h) IC50 was calculated using GraphPad Prism 7.0 software.
The IC50 (half-maximal inhibitory concentration) of the compound was obtained using the following nonlinear fitting formula: Y = Bottom + (Top−Bottom)/(1+10^(∧)((LogIC50−X)*HillSlope)) [formula] • X: Log value of the compound concentration • Y: Inhibition rate (% inhibition) • Top: Maximum response • Bottom: Baseline response • HillSlope: Slope of the curve
The formula for calculating cell inhibition rate (inhibition rate %) was: [formula]

A further assay deals with Ba/F3 parental cells. In words: Cell growth inhibitory activity assay (CellTiter-Glo), Ba/F3 parental cells. The settings on record: Mus musculus, BaF3, 72 h, CTG cell viability, read-out: IC50 Ba/F3 BCR-ABL1 Parental. In short, it runs like this: (§1)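 Ba/F3 lines stably transduced by lentivirus with WT or mutant BCR-ABL1, alongside untransduced parental Ba/F3, were seeded and incubated overnight at 37 °C, 5% CO2, then exposed to serially diluted compound for 72 h. Viability was read as ATP by CellTiter-Glo luminescence against a day-of-dosing T0 plate; IC50 from four-parameter nonlinear fit.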

Another assay has as its target T2, Ba/F3 BCR-ABL1 T315I (Homo sapiens, UniProt P00519+P11274, T315I).
T2 construct: BCR (N-terminal fusion partner of the oncoprotein); expressed in transfected cells; host or cells: Ba/F3 (lentiviral transduction, monoclonal line)
Briefly: Cell growth inhibitory activity assay (CellTiter-Glo), Ba/F3 BCR-ABL1 T315I cells. The settings on record: 72 h, CTG cell viability. In short, it runs like this: as §1

A further assay addresses T3, Ba/F3 BCR-ABL1 WT (Homo sapiens, UniProt P00519+P11274).
T3 construct: BCR (N-terminal fusion partner of the oncoprotein); expressed in transfected cells; host or cells: Ba/F3 (lentiviral transduction, monoclonal line)
Briefly: Cell growth inhibitory activity assay (CellTiter-Glo), Ba/F3 BCR-ABL1 WT cells. The settings on record: 72 h, CTG cell viability. In outline: as §1

As for `CC(=O)N[C@H]1CCC2c3cc(C(=O)Nc4ccc(OC(F)(F)Cl)cc4)cc(-c4cnc5c(c4)C(=O)N(C)C5)c3N(C(C)C)C21` (stereo partly drawn) [T-11-A, (3S)-3-acetamido-N-(4-(chlorodifluoromethoxy)phenyl)-4-isopropyl-5-(6-methyl-5-oxo-6,7-dihydro-5H-pyrrolo[3,4-b]pyridin-3-yl)-1,2,3,3a,4,8b-hexahydrocyclopenta[b]indole-7-carboxamide], the IC50 is 50 to 1000 nM in the assay with K562 cells; > 1000 nM on Ba/F3 BCR-ABL1 T315M; > 1000 nM in the assay on Ba/F3 parental cells; > 1000 nM at Ba/F3 BCR-ABL1 T315I; 50 to 1000 nM on Ba/F3 BCR-ABL1 WT.

On to `CC(=O)N[C@@H]1CCC2c3cc(C(=O)Nc4ccc(OC(F)(F)Cl)cc4)cc(-c4cnc5c(c4)C(=O)N(C)C5)c3N(C(C)C)C21` (stereo partly drawn) [T-11-B, (3R)-3-acetamido-N-(4-(chlorodifluoromethoxy)phenyl)-4-isopropyl-5-(6-methyl-5-oxo-6,7-dihydro-5H-pyrrolo[3,4-b]pyridin-3-yl)-1,2,3,3a,4,8b-hexahydrocyclopenta[b]indole-7-carboxamide], for which the IC50 was ≤ 5 nM in the assay on K562 cells; 50 to 1000 nM on Ba/F3 BCR-ABL1 T315M; > 1000 nM in the assay on Ba/F3 parental cells; 5 to 50 nM at Ba/F3 BCR-ABL1 T315I; ≤ 5 nM on Ba/F3 BCR-ABL1 WT.

Consider `CC(=O)N[C@H]1CCC2c3cc(C(=O)Nc4ccc(OC(F)(F)Cl)cc4)cc(-c4cnccn4)c3N(C(C)C)C21` (stereo partly drawn) [T-12-A, (3S)-3-acetamido-N-(4-(chlorodifluoromethoxy)phenyl)-4-isopropyl-5-(pyrazin-2-yl)-1,2,3,3a,4,8b-hexahydrocyclopenta[b]indole-7-carboxamide], for which the IC50 was 50 to 1000 nM in the assay with K562 cells; > 1000 nM against Ba/F3 BCR-ABL1 T315M; > 1000 nM in the assay on Ba/F3 parental cells; > 1000 nM against Ba/F3 BCR-ABL1 T315I; 50 to 1000 nM at Ba/F3 BCR-ABL1 WT.

As to `O=C(Nc1ccc(OC(F)(F)Cl)cc1)c1cc2c(c(-c3cnc4c(c3)-c3n[nH]cc3C4)c1)C1(CCCCC1)C(=O)N2` [T-125, N-(4-(chlorodifluoromethoxy)phenyl)-4'-(2,4-dihydropyrazolo[3',4':3,4]cyclopenta[1,2-b]pyridin-7-yl)-2'-oxospiro[cyclohexane-1,3'-indoline]-6'-carboxamide], the IC50 in the assay on K562 cells was ≤ 5 nM; with Ba/F3 parental cells, > 1000 nM; against Ba/F3 BCR-ABL1 T315I it was 5 to 50 nM; on Ba/F3 BCR-ABL1 WT, ≤ 5 nM.

Turning to `O=C(Nc1ccc(OC(F)(F)Cl)cc1)c1cc2c(c(-c3cnc4c(c3)-c3nn(-c5ncccn5)cc3C4)c1)C1(CCCCC1)C(=O)N2` [T-126, N-(4-(chlorodifluoromethoxy)phenyl)-4'-(2-(pyrimidin-2-yl)-2,4-dihydropyrazolo[3',4':3,4]cyclopenta[1,2-b]pyridin-7-yl)-2'-oxospiro[cyclohexane-1,3'-indoline]-6'-carboxamide], the IC50 in the assay with K562 cells was ≤ 5 nM; with Ba/F3 parental cells, > 1000 nM; against Ba/F3 BCR-ABL1 T315I it was ≤ 5 nM; against Ba/F3 BCR-ABL1 WT, ≤ 5 nM.

As for `O=C(Nc1ccc(OC(F)(F)Cl)cc1)c1cc2c(c(-c3cnc4c(c3)-c3nn(-c5ncc(F)cn5)cc3C4)c1)C1(CCCCC1)C(=O)N2` [T-127, N-(4-(chlorodifluoromethoxy)phenyl)-4'-(2-(5-fluoropyrimidin-2-yl)-2,4-dihydropyrazolo[3',4':3,4]cyclopenta[1,2-b]pyridin-7-vl)-2'-oxospiro[cyclohexane-1,3'-indoline]-6'-carboxamide], the IC50 with K562 cells is ≤ 5 nM; in the assay with Ba/F3 parental cells, > 1000 nM; on Ba/F3 BCR-ABL1 T315I, ≤ 5 nM; on Ba/F3 BCR-ABL1 WT it was ≤ 5 nM.

`N#Cc1cnc(-n2cc3c(n2)-c2cc(-c4cc(C(=O)Nc5ccc(OC(F)(F)Cl)cc5)cnc4N4CC[C@@H](F)C4)cnc2C3)nc1` [T-128, (R)-N-(4-(chlorodifluoromethoxy)phenyl)-5-(2-(5-cyanopyrimidin-2-yl)-2,4-dihydropyrazolo[3',4':3,4]cyclopenta[1,2-b]pyridin-7-yl)-6-(3-fluoropyrrolidin-1-yl)nicotinamide]: the IC50 in the assay with K562 cells is ≤ 5 nM; with Ba/F3 parental cells, > 1000 nM; on Ba/F3 BCR-ABL1 T315I, ≤ 5 nM; on Ba/F3 BCR-ABL1 WT, ≤ 5 nM.

For `N#Cc1ccnc(-n2cc3c(n2)-c2cc(-c4cc(C(=O)Nc5ccc(OC(F)(F)Cl)cc5)cnc4N4CC[C@@H](F)C4)cnc2C3)n1` [T-129, (R)-N-(4-(chlorodifluoromethoxy)phenyl)-5-(2-(4-cyanopyrimidin-2-yl)-2,4-dihydropyrazolo[3',4':3,4]cyclopenta[1,2-b]pyridin-7-yl)-6-(3-fluoropyrrolidin-1-yl)nicotinamide], the IC50 is ≤ 5 nM in the assay with K562 cells, > 1000 nM in the assay with Ba/F3 parental cells, ≤ 5 nM against Ba/F3 BCR-ABL1 T315I and ≤ 5 nM against Ba/F3 BCR-ABL1 WT.

For `O=C(Nc1ccc(OC(F)(F)Cl)cc1)c1cnc(N2CC[C@@H](F)C2)c(-c2cnc3c(c2)-c2nn(-c4ncc(F)cn4)cc2C3F)c1` (stereo partly drawn) [T-130, N-(4-(chlorodifluoromethoxy)phenyl)-5-(4-fluoro-2-(5-fluoropyrimidin-2-yl)-2,4-dihydropyrazolo[3',4':3,4]cyclopenta[1,2-b]pyridin-7-yl)-6-((R)-3-fluoropyrrolidin-1-yl)nicotinamide], the IC50 with K562 cells is ≤ 5 nM; in the assay on Ba/F3 parental cells, > 1000 nM; against Ba/F3 BCR-ABL1 T315I, ≤ 5 nM; at Ba/F3 BCR-ABL1 WT, ≤ 5 nM.

In the case of `O=C(Nc1ccc(OC(F)(F)Cl)cc1)c1cnc(N2CC[C@@H](F)C2)c(-c2cnc3c(c2)-c2c(cnn2-c2ncc(F)cn2)C3F)c1` (stereo partly drawn) [T-131, N-(4-(chlorodifluoromethoxy)phenyl)-5-(4-fluoro-1-(5-fluoropyrimidin-2-yl)-1,4-dihydrepyrazolo[3',4':3,4]cyclopenta[1,2-b]pyridin-7-yl)-6-((R)-3-fluoropyrrolidin-1-yl)nicotinamide], the IC50 in the assay on K562 cells is 5 to 50 nM; with Ba/F3 parental cells, > 1000 nM; against Ba/F3 BCR-ABL1 T315I it was 50 to 1000 nM; against Ba/F3 BCR-ABL1 WT, 50 to 1000 nM.

As to `Nc1nc(N2CC[C@@H](F)C2)c(-c2cnc3c(c2)-c2nn(-c4ncc(F)cn4)cc2C3)cc1C(=O)Nc1ccc(OC(F)(F)Cl)cc1` [T-132, (R)-2-amino-N-(4-(chlorodifluoromethoxy)phenyl)-5-(2-(5-fluoropyrimidin-2-yl)-2,4-dihydropyrazolo[3',4':3,4]cyclopenta[1,2-b]pyridin-7-yl)-6-(3-fluoropyrrolidin-1-yl)nicotinamide], the IC50 in the assay on K562 cells was ≤ 5 nM; in the assay on Ba/F3 parental cells, 50 to 1000 nM; on Ba/F3 BCR-ABL1 T315I it was ≤ 5 nM; against Ba/F3 BCR-ABL1 WT, ≤ 5 nM.

On to `N#Cc1ccnc(-n2cc3c(n2)-c2cc(-c4cc(C(=O)Nc5ccc(OC(F)(F)Cl)cc5)c(N)nc4N4CC[C@@H](F)C4)cnc2C3)n1` [T-133, (R)-2-amino-N-(4-(chlorodifluoromethoxy)phenyl)-5-(2-(4-cvanopyrimidin-2-yl)-2,4-dihydropyrazolo[3',4':3,4]cyclopenta[1,2-b]pyridin-7-yl)-6-(3-fluoropyrrolidin-1-yl)nicotinamide], for which the IC50 in the assay with K562 cells was ≤ 5 nM; in the assay on Ba/F3 parental cells, > 1000 nM; on Ba/F3 BCR-ABL1 T315I, ≤ 5 nM; on Ba/F3 BCR-ABL1 WT, ≤ 5 nM.

Take `N#Cc1cnc(-n2cc3c(n2)-c2cc(-c4cc(C(=O)Nc5ccc(OC(F)(F)Cl)cc5)c(N)nc4N4CC[C@@H](F)C4)cnc2C3)nc1` [T-134, (R)-2-amino-N-(4-(chlorodifluoromethoxy)phenyl)-5-(2-(5-cyanopyrimidin-2-yl)-2,4-dihydropyrazolo[3',4':3,4]cyclooenta[1,2-b]pyridin-7-yl)-6-(3-fluoropyrrolidin-1-yl)nicotinamide]: the IC50 with K562 cells was ≤ 5 nM; with Ba/F3 parental cells, 50 to 1000 nM; against Ba/F3 BCR-ABL1 T315I it was 50 to 1000 nM; on Ba/F3 BCR-ABL1 WT it was ≤ 5 nM.
